Laboratory results as given in patent US8492427B2, “Isoindolones derivatives as MEK kinase inhibitors and methods of use” (Genentech, Inc., priority 2008, dated 2013).

How the values were obtained:
[1] = test system: HCT116 human colorectal carcinoma; assay: Cell Proliferation Assay, HCT116; assay type: cell-based; conditions: HCT-116, HCT116 cell line, 72 h, CellTiter-Glo
Experimental: (§1) Compounds are tested in a cell proliferation assay using the following cell lines:
(§2) Both cell lines are maintained in DMEM/F12 (1:1) media (Gibco) supplemented with 10% FCS at 37° C. in a 5% CO2 humidified incubator.
(§3) Cells are seeded in 96-well plates at 2,000 cells/well and after 24 hours they are exposed to different concentrations of compounds in 0.83% DMSO. Cells are grown for a further 72 h, and an equal volume of CellTiter-Glo reagent (Promega) is added to each well. This lyses the cells and generates a luminescent signal proportional to the amount of ATP released (and therefore proportional to the number of cells in the well) that can be detected using a multi-well luminometer.
(§4) The EC50 is defined as the concentration at which a given compound achieves 50% inhibition of control. IC50 values are calculated using the XLfit software package (version 2.0.5).

[2] = test system: A375 human malignant melanoma; assay: Cell Proliferation Assay, A375; assay type: cell-based; conditions: A-375, A375 cell line, 72 h, CellTiter-Glo
Experimental: as §1, §2, §3, §4

[3] = target: constitutively activated human mutant MEK1 (Homo sapiens, UniProt Q02750); assay: MEK Assay (MEK Activity Assay); assay type: biochemical; conditions: 15 nM MEK1, 50 μM ATP, GST-ERK1 substrate, 30 minutes, HTRF; read-out: IC50 in the MEK activity assay of Example 1
Chain of constitutively activated human mutant MEK1 (Q02750 whole entry S218D/S222D, form open): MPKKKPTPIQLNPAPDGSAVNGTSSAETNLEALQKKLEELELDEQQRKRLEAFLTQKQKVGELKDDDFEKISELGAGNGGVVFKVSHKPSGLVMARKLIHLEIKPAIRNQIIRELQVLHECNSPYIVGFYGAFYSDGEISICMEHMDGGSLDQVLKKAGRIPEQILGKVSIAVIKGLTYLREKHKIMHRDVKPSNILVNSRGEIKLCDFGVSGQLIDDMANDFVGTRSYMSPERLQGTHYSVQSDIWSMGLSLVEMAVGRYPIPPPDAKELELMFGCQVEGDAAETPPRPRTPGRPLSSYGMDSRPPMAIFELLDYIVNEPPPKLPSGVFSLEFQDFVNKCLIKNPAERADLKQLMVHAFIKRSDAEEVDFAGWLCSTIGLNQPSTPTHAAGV
Experimental: Constitutively activated human mutant MEK1 expressed in insect cells is used as source of enzymatic activity at a final concentration in the kinase assay of 15 nM.
The assay is carried out for 30 minutes in the presence of 50 μM ATP using recombinant GST-ERK1 produced in E. Coli as substrate. Phosphorylation of the substrate is detected and quantified using HTRF reagents supplied by Cisbio. These consist of an anti-GST antibody conjugated to allophycocyanin (XL665) and an anti-phospho (Thr202/Tyr204) ERK antibody conjugated to europium-cryptate. These are used at a final concentration of 4 μg/ml and 0.84 μg/ml respectively. The anti-phospho antibody recognises ERK1 dually phosphorylated on Thr202 and Tyr204. When both antibodies are bound to ERK1 (i.e. when the substrate is phosphorylated), energy transfer from the cryptate to the allophycocyanin occurs following excitation at 340 nm, resulting in fluorescence being emitted that is proportional to the amount of phosphorylated substrate produced. Fluorescence is detected using a multiwell fluorimeter.
Compounds are diluted in DMSO prior to addition to assay buffer and the final DMSO concentration in the assay is 1%.
The IC50 is defined as the concentration at which a given compound achieves 50% inhibition of control. IC50 values are calculated using the XLfit software package (version 2.0.5).

[4] = test system: phospho-ERK in HCT116 cell line; assay: Phospho-ERK Cell-Based Assay, HCT116; conditions: Homo sapiens, HCT-116, exposure 2 h or 24 h
Experimental: Compounds are tested in a cell-based phospho-ERK ELISA using the following cell lines:
as §2
Cells are seeded in 96-well plates at 2,000 cells/well and after 24 h they are exposed to different concentrations of compounds in 0.83% DMSO. Cells are grown for a further 2 h or 24 h, fixed with formaldehyde (2% final) and permeabilised with methanol. Following blocking with TBST-3% BSA, fixed cells are incubated with primary antibody (anti-phospho ERK from rabbit) over-night at 4° C. Cells are incubated with Propidium Iodide (DNA fluorescent dye) and detection of cellular p-ERK is performed using an anti-rabbit secondary antibody conjugated to the fluorescent Alexa Fluor 488 dye (Molecular probes). The fluorescence is analysed using the Acumen Explorer (TTP Labtech), a laser-scanning microplate cytometer, and the Alexa Fluor 488 signal is normalised to the PI signal (proportional to cell number).
The EC50 is defined as the concentration at which a given compound achieves a signal half way between the baseline and the maximum response. EC50 values are calculated using the XLfit software package (version 2.0.5).

Q: Which results are given for `O=C1NCc2cc(C(=O)NOCCO)c(Nc3ccc(I)cc3F)cc21` [Example 5, 6-(2-Fluoro-4-iodo-phenylamino)-1-oxo-2,3-dihydro-1H-isoindole-5-carboxylic acid (2-hydroxy-ethoxy)-amide]?
A: EC50 [1]: < 500 nM; EC50 [2]: < 500 nM; IC50 [3]: < 100 nM; EC50 [4]: < 500 nM
